Experimental data published in patent publication US11254652B2, “Crystalline forms of N-(4-(4-(cyclopropymethyl)piperazine-1-carbonyl)phenyl)quinoline-8-sulfonamide” (Agios Pharmaceuticals, Inc., priority 2017, dated 2022).
Where two headings read alike, the source gives them in different places.

Test: Solubility measurements by gravimetric method in solvents at 23° C. and 50° C.
Type: physicochemical
Settings: for solubility at 2 days: organic solvent or mixture, thermodynamic from solid, read-out: Solubility
Description: Solubility measurements were done by gravimetric method in 20 different solvents at two temperatures (23° C. and 50° C.). About 20-30 mg of Form A, the synthesis of which is described below, was weighed and 0.75 mL solvent was added to form a slurry. The slurry was then stirred for two days at the specified temperature. The vial was centrifuged and the supernatant was collected for solubility measurement through gravimetric method. The saturated supernatant was transferred into pre-weighed 2 mL HPLC vials and weighed again (vial+liquid). The uncapped vial was then left on a 50° C. hot plate to slowly evaporate the solvent overnight. The vials were then left in the oven at 50° C. and under vacuum to remove the residual solvent so that only the dissolved solid remained. The vial was then weighed (vial+solid). From these three weights; vial, vial+liquid and vial+solid; the weight of dissolved solid and the solvent were calculated. Then using solvent density the solubility was calculated as mg solid/mL of solvent.
20-30 mg of Form A was weighed into 2 mL vial and 500 μL MeOH solvent system as outlined in the table was added. If dissolved, more solids were added to form the slurry. The slurries were then stirred for two days. The vials were centrifuged and the supernatant was collected for solubility measurement through gravimetric method by evaporation at 50° C. XRPD analysis was conducted on the solid after filtration of the slurries.
For the sake of comparison, the solubility of Compound 1, i.e., the non-crystalline freebase, was also measured in two solvent systems to see the effect of water.

Compound: O=C(c1ccc(NS(=O)(=O)c2cccc3cccnc23)cc1)N1CCN(CC2CC2)CC1 [Form A, 1-(cyclopropylmethyl)-4-(4-(quinoline-8-sulfonamido)benzoyl)piperazin-1-ium hemisulfate sesquihydrate]
- solubility at 2 days (DCM, 23 °C, DCM, 23° C.): 2000 µg/mL
- Solubility (EtOAc, 23° C.): 0 mg solid/mL solvent
- solubility at 2 days (EtOAc, 50 °C, EtOAc, 50° C.): 2000 µg/mL
- solubility at 2 days (EtOAc:MeOH (1:1) and 5 vol % water, 23 °C, EtOAc:MeOH (1:1) and 5 vol % water, 23° C.): 3000 µg/mL
- solubility at 2 days (EtOAc:MeOH (1:1) and 5 vol % water, 50 °C, EtOAc:MeOH (1:1) and 5 vol % water, 50° C.): 12000 µg/mL
- solubility at 2 days (EtOAc:MeOH (1:1), 23 °C, EtOAc:MeOH (1:1), 23° C.): 21000 µg/mL
- solubility at 2 days (EtOAc:MeOH (1:1), 50 °C, EtOAc:MeOH (1:1), 50° C.): 240000 µg/mL
- solubility at 2 days (EtOAc:MeOH (1:9), 23 °C, EtOAc:MeOH (1:9), 23° C.): 359000 µg/mL
- solubility at 2 days (EtOAc:MeOH (1:9), 50 °C, EtOAc:MeOH (1:9), 50° C.): 531000 µg/mL
- Solubility (EtOAc:MeOH (9:1), 23° C.): 0 mg solid/mL solvent
- solubility at 2 days (EtOAc:MeOH (9:1), 50 °C, EtOAc:MeOH (9:1), 50° C.): 9000 µg/mL
- Solubility (EtOH, 23° C.): 0 mg solid/mL solvent
- solubility at 2 days (EtOH, 50 °C, EtOH, 50° C.): 1000 µg/mL
- solubility at 2 days (EtOH:MeOH (1:1), 23 °C, EtOH:MeOH (1:1), 23° C.): 2000 µg/mL
- solubility at 2 days (EtOH:MeOH (1:1), 50 °C, EtOH:MeOH (1:1), 50° C.): 11000 µg/mL
- Solubility (IPA, 23° C.): 0 mg solid/mL solvent
- solubility at 2 days (IPA, 50 °C, IPA, 50° C.): 2000 µg/mL
- solubility at 2 days (IPA:DMSO (8:2), 23 °C, IPA:DMSO (8:2), 23° C.): 11000 µg/mL
- solubility at 2 days (IPA:DMSO (8:2), 50 °C, IPA:DMSO (8:2), 50° C.): 28000 µg/mL
- solubility at 2 days (IPA:DMSO:water (70:20:10), 23 °C, IPA:DMSO:water (70:20:10), 23° C.): 1000 µg/mL
- solubility at 2 days (IPA:DMSO:water (70:20:10), 50 °C, IPA:DMSO:water (70:20:10), 50° C.): 8000 µg/mL
- solubility at 2 days (IPA:DMSO:water (70:25:5), 23 °C, IPA:DMSO:water (70:25:5), 23° C.): 2000 µg/mL
- solubility at 2 days (IPA:DMSO:water (70:25:5), 50 °C, IPA:DMSO:water (70:25:5), 50° C.): 9000 µg/mL
- solubility at 2 days (IPA:DMSO:water (80:18:2), 23 °C, IPA:DMSO:water (80:18:2), 23° C.): 1000 µg/mL
- solubility at 2 days (IPA:DMSO:water (80:18:2), 50 °C, IPA:DMSO:water (80:18:2), 50° C.): 6000 µg/mL
- Solubility (IPAc, 23° C.): 0 mg solid/mL solvent
- solubility at 2 days (IPAc, 50 °C, IPAc, 50° C.): 1000 µg/mL
- Solubility (MEK:water (20:1), 23° C.): 0 mg solid/mL solvent
- solubility at 2 days (MEK:water (20:1), 50 °C, MEK:water (20:1), 50° C.): 2000 µg/mL
- solubility at 2 days (MeOAc:MeOH (1:1) and 1 vol % water, 23 °C, MeOAc:MeOH (1:1) and 1 vol % water, 23° C.): 118000 µg/mL
- solubility at 2 days (MeOAc:MeOH (1:1) and 1 vol % water, 50 °C, MeOAc:MeOH (1:1) and 1 vol % water, 50° C.): 236000 µg/mL
- solubility at 2 days (MeOAc:MeOH (1:1) and 2.5 vol % water, 23 °C, MeOAc:MeOH (1:1) and 2.5 vol % water, 23° C.): 39000 µg/mL
- solubility at 2 days (MeOAc:MeOH (1:1) and 2.5 vol % water, 50 °C, MeOAc:MeOH (1:1) and 2.5 vol % water, 50° C.): 143000 µg/mL
- solubility at 2 days (MeOAc:MeOH (1:1) and 5 vol % water, 23 °C, MeOAc:MeOH (1:1) and 5 vol % water, 23° C.): 5000 µg/mL
- solubility at 2 days (MeOAc:MeOH (1:1) and 5 vol % water, 50 °C, MeOAc:MeOH (1:1) and 5 vol % water, 50° C.): 26000 µg/mL
- solubility at 2 days (MeOAc:MeOH (1:1), 23 °C, MeOAc:MeOH (1:1), 23° C.): 208000 µg/mL
- solubility at 2 days (MeOAc:MeOH (1:1), 50 °C, MeOAc:MeOH (1:1), 50° C.): 340000 µg/mL
